# Values joined by “and” are separate entries in the source; they are usually repeats but may differ in a detail not shown here. Equal values may be shown once.
# Test system: 699152-130-R-J1-PDC complex spheroid viability
# Test: Anticancer human tumor 699152-130-R-J1-PDC patient-derived pancreatic carcinoma cell line growth inhibition [POLQ]
# Conditions: for viability, T/C: stronger effect = lower value
# Procedure: Multicellular complex tumor spheroid response to Polymerase (POL) inhibitors (novobiocin, ART-558, RP6685) in combination with a variety of drugs and investigational agents in selected tumor cell lines
# The POL inhibitors (novobiocin, ART-558, and RP6685) were evaluated both individually and in combination with standard of care and investigational anticancer small molecules within a complex spheroid model of solid tumors. . Complex spheroids include a stromal component modeled by human endothelial cells (HUVEC) and fibroblasts modeled by human mesenchymal stem cells (MSCs). The concentration ranges selected for each drug and investigational agent were based upon clinically achievable concentrations if the clinical Cmax of the agent was known.
# Compounds. The drugs and investigational agents: novobiocin (NSC847541), ART-558 (NSC835418), RP-6685 (NSC848927), peposertib (NSC802822), ceralasertib (NSC780249), elimusertib (NSC800525), camonsertib (NSC841442), AZD-1390 (NSC803789), olaparib (NSC753686), talazoparib (NSC767125), rucaparib (NSC756644), sotorasib (NSC818433), MRTX-1133 (NSC836407), SN-38 (NSC673596), topotecan (NSC609699), epotoside (NSC141540), doxorubicin (NSC123127), gemcitabine (NSC613327), 5-fluorouracil (NSC19893), paclitaxel (NSC125973), vemurafenib (NSC761431), MSA-2 (NSC828583), SN-011 (NSC837082), adavosertib (NSC754352), prexasertib (NSC758257), carboplatin (NSC241240) and oxaliplatin (NSC266046), were obtained from the National Cancer Institute (NCI) Developmental Therapeutics Program Chemical Repository (21). The FDA-approved anticancer drug set is available from the Developmental Therapeutics Program at https://dtp.cancer.gov/organization/dscb/obtaining/. […] The stock solutions were prepared in dimethyl sulfoxide (DMSO, Sigma-Aldrich, St. Louis, MO, cat. D2650), except for the platinum compounds which were prepared in saline (Quality Biological, Gaithersburg, MD, cat. 114-055-101), at 800-fold the tested concentration and stored at -70 degrees C prior to their use. All drugs and investigational agents were tested over a range starting from a high concentration at or near the clinical Cmax and decreasing in half-log increments. If the clinical Cmax for an agent had not been determined, the highest concentration tested was 10 microM, except for SN-38, which was tested at a high concentration of 1 microM.
# Cell Culture. All cells were maintained in an incubator at 37 degrees C and 5% CO2 with 95% humidity. The PDC lines were cultured according to standard operating procedures established by the NCI PDMR (https://pdmr.cancer.gov). Table 3 of the manuscript, lists the cell lines along with the number of the three cell types plated to form the mct-spheroids and media for tumor cell growth. After thawing, all PDC lines, except 997537-175-T-J1-PDC and 415267-285-R-J2-PDC, were cultured in Matrigel-coated flasks prepared with a working solution of 1X Ham's F-12 nutrient mix, without supplementation (Thermo Fisher Scientific, cat. 11765054), 100 U/mL penicillin-streptomycin (Thermo Fisher Scientific, cat. 15140122), and 2.5% Matrigel (Corning Inc., Corning, NY, cat. 354248) for the first three passages. The two PDC lines 997537-175-T-J1-PDC and 415267-285-R-J2-PDC were cultured on uncoated flasks. The 857933-349-R-J2-PDC line was cultured in 6C/Colon 1B media containing advanced DMEM/F-12 (Thermo Fisher Scientific, cat. 12634028), 10 mM HEPES (Thermo Fisher Scientific, cat. 15630080), 1X GlutaMAX supplement (Thermo Fisher Scientific, cat. 35050061), 0.1 mg/mL primocin (InvivoGen, San Diego, CA, cat. ant-pm-2), 10% defined fetal bovine serum, heat inactivated (HyClone Laboratories Inc., Logan, UT, cat. SH30070.03HI), 50% L-WRN conditioned media (ATCC, cat. CRL-3276), 1.25 mM N-Acetyl-L-cysteine (Sigma-Aldrich, cat. A9165), 10 mM nicotinamide (Sigma-Aldrich, cat. N0636), 1X B-27 supplement (Thermo Fisher Scientific, cat. 17504044), 1X N-2 supplement (Thermo Fisher Scientific, cat. […]
# 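Note: spheroids exposed to agents for 7 days before viability reading.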
# 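Throughout, for viability, T/C: percent of DMSO vehicle control viability so 100% = vehicle and 0% = no viable signal.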
structure (smiles),measurement,setting,value
CNCc1ccc(-c2[nH]c3cc(F)cc4c3c2CCNC4=O)cc1,"viability, T/C",compound 0.0316 µM,96.2% and 95.6% and 99%
same,"viability, T/C",compound 0.1 µM,99.8% and 91.1% and 101%
same,"viability, T/C",compound 0.316 µM,118% and 90.3% and 99.8%
same,"viability, T/C",compound 1 µM,106% and 108% and 112%
same,"viability, T/C",compound 3.16 µM,119% and 117% and 138%
same,"viability, T/C",compound 10 µM,111% and 109% and 130%
same,IC50,curve of compound,> 10000 nM
CC1COCCN1c1cc(C2(S(C)(=N)=O)CC2)nc(-c2ccnc3[nH]ccc23)n1 (stereo not drawn),"viability, T/C",compound 0.0316 µM,105% and 93.7% and 91.8%
same,"viability, T/C",compound 0.1 µM,102% and 97.1% and 94.4%
same,"viability, T/C",compound 0.316 µM,90.2% and 91.5% and 105%
same,"viability, T/C",compound 1 µM,88.6% and 97.4% and 88.8%
same,"viability, T/C",compound 3.16 µM,76% and 82.6% and 74%
same,"viability, T/C",compound 10 µM,73.1% and 68.3% and 65.9%
same,IC50,curve of compound,> 10000 nM
Nc1ccn(C2OC(CO)C(O)C2(F)F)c(=O)n1 (stereo not drawn) + Cc1cccc(N(C)C(=O)C2C(O)CCN2c2nc(C)cc(C(F)(F)F)c2C#N)c1,IC50,"curve of first compound, second compound 0.0316 µM",958 nM
same,IC50,"curve of first compound, second compound 0.1 µM",408 nM
same,IC50,"curve of first compound, second compound 0.316 µM",468 nM
same,IC50,"curve of first compound, second compound 1 µM",1240 nM
same,IC50,"curve of first compound, second compound 3.16 µM",2050 nM
same,IC50,"curve of first compound, second compound 10 µM",3290 nM
same,"viability, T/C","second compound 0.0316 µM, first compound 0.0316 µM",70.1%
same,"viability, T/C","second compound 0.0316 µM, first compound 0.1 µM",57%
same,"viability, T/C","second compound 0.0316 µM, first compound 0.316 µM",53.7%
same,"viability, T/C","second compound 0.0316 µM, first compound 1 µM",52.5%
same,"viability, T/C","second compound 0.0316 µM, first compound 3.16 µM",48%
same,"viability, T/C","second compound 0.0316 µM, first compound 10 µM",39%
same,"viability, T/C","second compound 0.1 µM, first compound 0.0316 µM",75%
same,"viability, T/C","second compound 0.1 µM, first compound 0.1 µM",58.9%
same,"viability, T/C","second compound 0.1 µM, first compound 0.316 µM",50.3%
same,"viability, T/C","second compound 0.1 µM, first compound 1 µM",48.8%
same,"viability, T/C","second compound 0.1 µM, first compound 3.16 µM",45%
same,"viability, T/C","second compound 0.1 µM, first compound 10 µM",44.7%
same,"viability, T/C","second compound 0.316 µM, first compound 0.0316 µM",75%
same,"viability, T/C","second compound 0.316 µM, first compound 0.1 µM",62.3%
same,"viability, T/C","second compound 0.316 µM, first compound 0.316 µM",49.6%
same,"viability, T/C","second compound 0.316 µM, first compound 1 µM",44.6%
same,"viability, T/C","second compound 0.316 µM, first compound 3.16 µM",51.6%
same,"viability, T/C","second compound 0.316 µM, first compound 10 µM",37.9%
same,"viability, T/C","second compound 1 µM, first compound 0.0316 µM",74%
same,"viability, T/C","second compound 1 µM, first compound 0.1 µM",55.3%
same,"viability, T/C","second compound 1 µM, first compound 0.316 µM",60.9%
same,"viability, T/C","second compound 1 µM, first compound 1 µM",52.6%
same,"viability, T/C","second compound 1 µM, first compound 3.16 µM",44.8%
same,"viability, T/C","second compound 1 µM, first compound 10 µM",42.1%
same,"viability, T/C","second compound 3.16 µM, first compound 0.0316 µM",72.9%
same,"viability, T/C","second compound 3.16 µM, first compound 0.1 µM",63.3%
same,"viability, T/C","second compound 3.16 µM, first compound 0.316 µM",57.9%
same,"viability, T/C","second compound 3.16 µM, first compound 1 µM",55%
same,"viability, T/C","second compound 3.16 µM, first compound 3.16 µM",45.6%
same,"viability, T/C","second compound 3.16 µM, first compound 10 µM",46.5%
same,"viability, T/C","second compound 10 µM, first compound 0.0316 µM",76.4%
same,"viability, T/C","second compound 10 µM, first compound 0.1 µM",63.5%
same,"viability, T/C","second compound 10 µM, first compound 0.316 µM",56.6%
same,"viability, T/C","second compound 10 µM, first compound 1 µM",59.5%
same,"viability, T/C","second compound 10 µM, first compound 3.16 µM",53.6%
same,"viability, T/C","second compound 10 µM, first compound 10 µM",42.6%
C=CC(=O)N1CCN(c2nc(=O)n(-c3c(C)ccnc3C(C)C)c3nc(-c4c(O)cccc4F)c(F)cc23)C(C)C1 (stereo not drawn),"viability, T/C",compound 0.0316 µM,105% and 104% and 110%
same,"viability, T/C",compound 0.1 µM,103% and 99.2% and 98%
same,"viability, T/C",compound 0.316 µM,108% (2×) and 115%
same,"viability, T/C",compound 1 µM,113% and 97.7% and 121%
same,"viability, T/C",compound 3.16 µM,118% and 115% and 113%
same,"viability, T/C",compound 10 µM,109% and 106% and 105%
same,IC50,curve of compound,> 10000 nM

# Source: PubChem BioAssay AID1963835 (Molecular Pharmacology Branch, DTP, NCI, 2024)
